Test results as given in patent publication EP0292191A1, “2-(Substituted methyl)-1-alkylcarbapenem derivatives” (Merck & Co., Inc., priority 1987, dated 1988).

Assays:
Settings in all cases: relative to thienamycin (=1.0)
E. coli = experiment: Agar disc-diffusion assay, relative antibacterial potency; assay type: cell-based
Procedure: (§1) The antibacterial activities of the compounds of this invention illustrated in the examples were determined using the following method.
(§2) Antibacterial activities were determined by the disc-diffusion assay described by Bauer et al., Amer. J. Clin. Pathol., 45, 493 (1966), except that an agar thickness of 0.2 cm was used. Thienamycin or imipenem was used as the internal standard. For maximum reproducibility, the inner, completely clear region of the zone of inhibition was measured. Inhibiting concentration at the edge of the zone was computed for each test compound using equation (3) (rearranged) reported by Humphrey and Lightbown in J. Gen. Microbiol., 7, 129 (1952), which takes into account differing molecular weights and resulting diffusion constants. Ratios of the geometric means of the inhibitory concentrations to that of thienamycin were determined for each test compound.
(§3) Antibacterial potencies were determined using standard agar disc diffusion assays and are reported relative to thienamycin (=1.0). Dehydropeptidase-I (DHP-I) susceptibilities were determined by the method of Kropp et al., Antimicrobial Agents Chemother., 22, 62-70 (1982), and are reported relative to thienamycin (=1.0).

Enterobacter = experiment: as above; assay type: cell-based
Procedure: as §1, §2, §3

Enterococcus = experiment: as above; assay type: cell-based
Procedure: as §1, §2, §3

Klebsiella = experiment: as above; assay type: cell-based
Procedure: as §1, §2, §3

Proteus (Ind. + and -) = experiment: as above; assay type: cell-based
Procedure: as §1, §2, §3

Ps. aeruginosa = experiment: as above; assay type: cell-based
Procedure: as §1, §2, §3

S. aureus = experiment: as above; assay type: cell-based
Procedure: as §1, §2, §3

Serratia = experiment: as above; assay type: cell-based
Procedure: as §1, §2, §3

[1] = tested on: Dehydropeptidase-I (DHP-I); experiment: Dehydropeptidase-I susceptibility (method of Kropp et al.); assay type: in vitro ADME
Description: Antibacterial compounds of Formula I are of the broad class known as carbapenems or 1-carbadethiapenems. Certain of these carbapenems are susceptible to attack by a renal enzyme known as dehydropeptidase (DHP). This attack or degradation may reduce the efficacy of the carbapenem antibacterial agent. Inhibitors of DHP and their use with carbapenem antibacterial agents are disclosed in the prior art. See European Patent Applications No. 79102616.4 filed July 24, 1979 (Publication No. 0 010 573); 79102615.6, filed July 24, 1979 (Publication No. 0 007 614); and 82107174.3, filed August 9, 1982 (Publication No. 0 072 014).
as §3

| SMILES | Relative Antibacterial Potencies (E. coli) | Relative Antibacterial Potencies (Enterobacter) | Relative Antibacterial Potencies (Enterococcus) | Relative Antibacterial Potencies (Klebsiella) | Relative Antibacterial Potencies (Proteus (Ind. + and -)) | Relative Antibacterial Potencies (Ps. aeruginosa) | Relative Antibacterial Potencies (S. aureus) | Relative Antibacterial Potencies (Serratia) | DHP-I susceptibility [1] |
| --- | --- | --- | --- | --- | --- | --- | --- | --- | --- |
| CNC(=O)OCC1=C(C(=O)O)N2C(=O)[C@H]([C@@H](C)O)[C@H]2[C@H]1C [Example 5, Potassium (1S,1′R,5R,6S)-2-methylaminocarbonyl oxymethyl-6-(1′-hydroxyethyl)-1-methylcarbapen-2-em-3-carboxylate] | 5.7 | 9.8 | 3.7 | 7.0 | 16 | 0.2 | 0.8 | 16 | 0.59 |
| C[C@@H](O)[C@H]1C(=O)N2C(C(=O)[O-])=C(COC(=O)NCC[n+]3ccccc3)[C@H](C)[C@H]12 [Example 8, (1S,1′R,5R,6S)-6-(1′-hydroxyethyl)-1-methyl-2-(2˝-pyridiniumethylaminocarbonyloxymethyl)carbapen-2-em-3-carboxylic acid] | 0.93 | 2.1 | 2.3 | 1.1 | 2.5 | 0.33 | 0.87 | 2.1 | 0.05 |
| C[C@@H](O)[C@H]1C(=O)N2C(C(=O)O)=C(CN=[N+]=[N-])[C@H](C)[C@H]12 [Example 3, Potassium (1S,1′R,5R,6S)-2-azidomethyl-6-(1′-hydroxyethyl)-1-methylcarbapen-2-em-3-carboxylate] | 9.2 | 11.3 | 2.0 | 4.3 | 29.9 | 0.06 | 1.4 | 22.6 | 7.29 |
| C[C@@H](O)[C@H]1C(=O)N2C(C(=O)O)=C(CN)[C@H](C)[C@H]12 [Example 9, (1S,1′R,5R,6S)-2-aminomethyl-6-(1′-hydroxyethyl)-1-methylcarbapen-2-em-3-carboxylic acid] | 0.2 | 0.3 | 0.3 | 0.2 | 0.2 | 0.4 | 0.6 | 0.2 | 0.06 |
| C[C@@H](O)[C@H]1C(=O)N2C(C(=O)O)=C(CO)[C@H](C)[C@H]12 [Example 1, Potassium (1S,1′R,5R,6S)-2-hydroxymethyl-6-(1′-hydroxyethyl)-1-methylcarbapen-2-em-3-carboxylate] | 2.3 | 3.7 | 1.0 | 2.0 | 3.0 | 0.2 | 0.4 | 4.3 | 0.76 |
| C[C@@H](O)[C@H]1C(=O)N2C(C(=O)O)=C(COC(=O)N(C)C)[C@H](C)[C@H]12 [Example 7, Potassium (1S,1′R,5R,6S)-2-dimethylamino carbonyloxymethyl-6-(1′-hydroxyethyl)-1-methylcarbapen-2-em-3-carboxylate] | 0.6 | 0.8 | 1.2 | 0.4 | 11.3 | 0.04 | 1.4 | 1.4 | 0.29 |
| C[C@@H](O)[C@H]1C(=O)N2C(C(=O)O)=C(COC(N)=O)[C@H](C)[C@H]12 [Example 4, Potassium (1S,1′R,5R,6S)-2-aminocarbonyloxy methyl-6-(1′-hydroxyethyl)-1-methylcarbapen-2-em-3-carboxylate] | 6.1 | 22.6 | 5.7 | 7.0 | 14.9 | 0.4 | 0.9 | 32 | 0.39 |
| CC(=O)OCC1=C(C(=O)O)N2C(=O)[C@H]([C@@H](C)O)[C@H]2[C@H]1C [Example 2, Potassium (1S,1′R,5R,6S)-2-acetoxymethyl-6-(1′-hydroxyethyl)-1-methylcarbapen-2-em-3-carboxylate] | 4.0 | 7.0 | 2.8 | 2.5 | 27.9 | 0.09 | 0.7 | 12.1 | 0.52 |
| C[C@@H](O)[C@H]1C(=O)N2C(C(=O)O)=C(COC(=O)Nc3ccccc3)[C@H](C)[C@H]12 [Example 6, Potassium (1S,1′R,5R,6S)-2-phenylaminocarbonyloxymethyl-6-(1′-hydroxyethyl)-1-methylcarbapen-2-em-3-carboxylate] | 0.6 | 0.2 | 2.8 | 0.2 | 4.9 | 0.03 | 1.2 | 0.3 | 1.35 |
